Source: patent US9278954B2, “Pyrrolidine derivatives, pharmaceutical compositions and uses thereof” (Boehringer Ingelheim International GmbH, priority 2013, dated 2016)

Target: human ACC2 (Homo sapiens (Human), UniProt O00763)
Test: ACC2 assay (spectrophotometric 384 well assay, NADH-linked kinetic method)
Type: biochemical
Settings: hACC2 construct lacking the 128 N-terminal amino acids; 25° C., 340 nm over 15 minutes
Experimental: Spectrophotometric 384 Well Assay
Malonyl CoA formation by acetyl CoA carboxylases is stoichometrically linked to the consumption of ATP. ACC2 activity is measured in a NADH-linked kinetic method measuring ADP generated during the ACC reaction using a coupled lactate dehydrogenase/pyruvate kinase reaction.
The protein is then expressed in insect cells using a baculoviral expression system. Protein purification is performed by anion exchange.
All compounds are dissolved in dimethyl sulfoxide (DMSO) to a concentration of 10 mM.
The enzymatic reaction is then started by addition of a mixture of NADH, acetyl
Coenzyme A (both […].) and ATP (500 uM f.c.). The decrease of the optical density (slope S) is then determined at 25° C. at a wavelength of 340 nm over 15 minutes in a spectrophotometric reader.
Each assay microtiter plate contains wells with vehicle instead of compound as controls for the non-inhibited enzyme (100% CTL; ‘HIGH’) and wells without acetyl-CoA as controls for non-specific NADH degradation (0% CTL; ‘LOW’).

Chain of human ACC2 (O00763 129-2458): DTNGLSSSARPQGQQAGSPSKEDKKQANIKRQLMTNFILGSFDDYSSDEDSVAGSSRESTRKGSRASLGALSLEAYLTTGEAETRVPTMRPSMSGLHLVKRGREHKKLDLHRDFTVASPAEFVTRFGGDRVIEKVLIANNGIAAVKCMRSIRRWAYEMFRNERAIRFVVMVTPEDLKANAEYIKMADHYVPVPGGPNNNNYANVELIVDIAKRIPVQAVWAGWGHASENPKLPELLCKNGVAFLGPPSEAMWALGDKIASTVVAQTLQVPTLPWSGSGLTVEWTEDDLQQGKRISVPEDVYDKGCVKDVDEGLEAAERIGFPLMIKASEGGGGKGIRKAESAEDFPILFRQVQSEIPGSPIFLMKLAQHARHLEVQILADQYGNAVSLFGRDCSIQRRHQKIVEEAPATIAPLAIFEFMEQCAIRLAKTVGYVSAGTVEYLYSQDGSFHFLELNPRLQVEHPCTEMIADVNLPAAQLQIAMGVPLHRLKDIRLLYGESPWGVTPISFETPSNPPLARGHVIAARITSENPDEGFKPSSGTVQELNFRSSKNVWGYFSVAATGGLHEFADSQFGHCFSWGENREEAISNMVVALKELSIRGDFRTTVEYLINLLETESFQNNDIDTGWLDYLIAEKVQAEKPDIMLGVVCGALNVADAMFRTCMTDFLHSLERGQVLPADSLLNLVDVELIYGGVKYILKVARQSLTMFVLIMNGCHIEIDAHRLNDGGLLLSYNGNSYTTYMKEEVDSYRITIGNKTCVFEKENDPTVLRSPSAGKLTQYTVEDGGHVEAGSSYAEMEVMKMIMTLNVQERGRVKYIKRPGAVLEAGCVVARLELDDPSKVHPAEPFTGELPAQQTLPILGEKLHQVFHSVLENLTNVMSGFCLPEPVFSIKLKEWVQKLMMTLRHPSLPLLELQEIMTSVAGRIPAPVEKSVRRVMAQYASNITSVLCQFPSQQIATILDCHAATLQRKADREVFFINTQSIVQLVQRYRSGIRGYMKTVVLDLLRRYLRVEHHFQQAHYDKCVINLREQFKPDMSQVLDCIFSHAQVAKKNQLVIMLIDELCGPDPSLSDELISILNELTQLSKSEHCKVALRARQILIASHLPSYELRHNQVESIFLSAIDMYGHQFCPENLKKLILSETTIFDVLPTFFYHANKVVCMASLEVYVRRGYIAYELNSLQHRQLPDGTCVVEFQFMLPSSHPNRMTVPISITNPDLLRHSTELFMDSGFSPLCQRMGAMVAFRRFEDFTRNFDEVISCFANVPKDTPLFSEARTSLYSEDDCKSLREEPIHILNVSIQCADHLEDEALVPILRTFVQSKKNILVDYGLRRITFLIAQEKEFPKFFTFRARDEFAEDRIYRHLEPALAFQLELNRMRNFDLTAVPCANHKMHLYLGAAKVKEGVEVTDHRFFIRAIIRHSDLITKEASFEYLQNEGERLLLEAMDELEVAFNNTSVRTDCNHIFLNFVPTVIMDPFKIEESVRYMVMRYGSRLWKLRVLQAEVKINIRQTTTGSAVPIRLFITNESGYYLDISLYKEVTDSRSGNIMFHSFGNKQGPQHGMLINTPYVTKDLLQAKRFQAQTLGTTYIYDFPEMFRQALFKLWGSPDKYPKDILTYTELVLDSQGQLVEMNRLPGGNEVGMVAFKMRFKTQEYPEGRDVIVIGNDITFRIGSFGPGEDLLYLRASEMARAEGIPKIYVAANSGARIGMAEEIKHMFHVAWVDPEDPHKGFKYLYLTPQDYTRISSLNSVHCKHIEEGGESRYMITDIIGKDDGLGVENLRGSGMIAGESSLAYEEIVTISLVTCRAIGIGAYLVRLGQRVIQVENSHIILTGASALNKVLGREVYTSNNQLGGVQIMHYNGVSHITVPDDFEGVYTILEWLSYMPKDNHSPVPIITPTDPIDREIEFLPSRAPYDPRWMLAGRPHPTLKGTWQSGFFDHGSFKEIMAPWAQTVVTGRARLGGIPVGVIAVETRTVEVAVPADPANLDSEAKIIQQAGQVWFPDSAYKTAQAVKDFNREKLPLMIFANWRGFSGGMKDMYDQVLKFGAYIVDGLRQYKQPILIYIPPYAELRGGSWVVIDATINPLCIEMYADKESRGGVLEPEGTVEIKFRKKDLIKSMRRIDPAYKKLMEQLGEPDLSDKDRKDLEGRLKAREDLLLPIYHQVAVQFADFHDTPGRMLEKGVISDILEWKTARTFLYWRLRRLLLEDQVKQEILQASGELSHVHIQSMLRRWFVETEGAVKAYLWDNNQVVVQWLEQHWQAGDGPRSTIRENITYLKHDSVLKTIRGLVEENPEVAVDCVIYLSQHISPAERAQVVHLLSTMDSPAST

| IC50 | Compound |
| --- | --- |
| 315 nM | CCNC(=O)C(C)c1ccc(O[C@@H]2CCN(c3cccc(C(F)(F)F)n3)C2)cc1 (stereo partly shown) [Example 7.9] |
| 352 nM | CC(C(=O)Nc1cccnc1)c1ccc(O[C@@H]2CCN(c3nc(N(C)C)ncc3F)C2)cc1 (stereo partly shown) [Example 3.6] |
| 263 nM | CC(C(=O)NCC(F)F)c1ccc(O[C@@H]2CCN(c3ccc(OCC4CC4(F)F)cn3)C2)cc1 (stereo partly shown) [Example 1.15] |
| 603 nM | CC[C@@H](C)NC(=O)C(C)c1ccc(O[C@@H]2CCN(c3ncnc(OCC(C)(F)F)c3F)C2)cc1 (stereo partly shown) [Example 1.59] |
| 444 nM | CCNC(=O)C(C)c1ccc(O[C@@H]2CCN(c3ncc(OCC4CC4(F)F)cn3)C2)cc1 (stereo partly drawn) [Example 9.1, 2-(4-(1-[5-(2,2-Difluoro-cyclopropylmethoxy)-pyrimidin-2-yl]-(R)-pyrrolidin-3-yloxy)-phenyl)-N-ethyl-propionamide] |
| 306 nM | C#CCNC(=O)C(C)c1ccc(O[C@@H]2CCN(c3ncnc(OCC(C)(C)O)c3Cl)C2)cc1 (stereo partly shown) [Example 1.20] |
| 101 nM | CCCNc1nccc(N2CC[C@@H](Oc3ccc(C(C)C(=O)NC4CC4C)cc3)C2)c1F (single isomer, unassigned) [Example 1.3] |
| 205 nM | CC(C(=O)NC1CC1C)c1ccc(O[C@@H]2CCN(c3ccc(OCC4CC4(F)F)cn3)C2)cc1 (stereo partly shown) [Example 1.10] |
| 322 nM | C=CCNC(=O)C(C)c1ccc(O[C@@H]2CCN(c3ncnc(OCC(C)(C)O)c3Cl)C2)cc1 (stereo partly shown) [Example 1.25] |
| 975 nM | CCNC(=O)C(C)c1ccc(O[C@@H]2CCN(c3ccnc(C(F)(F)F)n3)C2)cc1 (stereo partly shown) [Example 9.2] |
| 821 nM | CCNC(=O)C(C)c1ccc(O[C@@H]2CCN(c3cccc(C)n3)C2)cc1 (stereo partly shown) [Example 7.33] |
| 789 nM | CCCNc1nccc(N2CC[C@@H](Oc3ccc(C(C)C(=O)NC(C)CO)cc3)C2)c1F (stereo partly shown) [Example 1.72] |
| 286 nM | C=C(C)CNC(=O)C(C)c1ccc(O[C@@H]2CCN(c3ccnc(NCCC)c3F)C2)cc1 (stereo partly shown) [Example 1.18] |
| 563 nM | CCNC(=O)C(C)c1ccc(O[C@@H]2CCN(c3ccc(F)c(C)n3)C2)cc1 (stereo partly shown) [Example 7.27] |
| 118 nM | CCCNc1nccc(N2CC[C@@H](Oc3ccc(C(C)C(=O)NC4CC4C)cc3)C2)c1F (single isomer, unassigned) [Example 1.4] |

| Compound | IC50 |
| --- | --- |
| CC(C(=O)NC1CC1C)c1ccc(O[C@@H]2CCN(c3ncnc(OCC(C)(C)O)c3Cl)C2)cc1 (single isomer, unassigned) [6.4 isomer 1] | 121 nM |
| CCNC(=O)C(C)c1ccc(O[C@@H]2CCN(c3ccc(OC4CCC4)cc3)C2)cc1 (stereo partly drawn) [Example 7.1, 2-(4-[1-(4-Cyclobutoxy-phenyl)-(R)-pyrrolidin-3-yloxy]-phenyl)-N-ethyl-propionamide] | 41 nM |
| CC(C(=O)NC1CC1C)c1ccc(O[C@@H]2CCN(c3ncnc(OCC(C)(C)O)c3Cl)C2)cc1 (stereo partly shown) [Example 1.26] | 325 nM |
| CC(C(=O)NC1CC1C)c1ccc(O[C@@H]2CCN(c3nc(N(C)C)ncc3F)C2)cc1 (single isomer, unassigned) [6.2 isomer 1] | 86 nM |
